Experimental data from patent publication US10336792B2, “Antimicrobial peptide dendrimers” (priority 2014, dated 2019).
Converted amounts (≈) assume the structure as drawn. Positions of bridges follow the written chain, without caps; N, C: chain ends. Non-standard residues stand in square brackets, D forms with d. Residues, ends and D or L forms follow the SMILES beside them. Groups on a side chain read outwards from the residue. Chains are numbered I, II in the order given. *: point of attachment. Stearoyl = CCCCCCCCCCCCCCCCCC(=O)*; Dab = NCC[C@H](N)C(=O)O

Key:
Assay type in all cases: cell-based
[1] = tested on: Bacillus subtilis (strain BR151); conditions: strain BR151
Summary of the method: (§1)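 Broth microdilution MIC in LB; overnight cultures diluted to OD600 0.001 and mixed 1:1 with ⅔-serially diluted samples (stock 1 mg mL^−1 in H2O), 37° C for 18-24 h. MTT (0.1%) added; MIC read by eye as lowest concentration inhibiting visible growth (yellow).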

[2] = tested on: Escherichia coli (strain DH5α); conditions: DH5α
Summary of the method: as §1

[3] = tested on: Pseudomonas aeruginosa (strain PA01); test: microbe, parasite or virus in culture; conditions: strain
Summary of the method: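 P. aeruginosa PAO1 grown overnight in LB, diluted to OD600 0.001 and mixed with ⅔-step peptide dilutions, then incubated at 37 °C for 18–24 h. After MTT staining, the lowest concentration with no visible growth was read by eye as the MIC.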

**Q.** How did the “MIC B. subtilis BR151” value [1] turn out when `CCCCCCCCCCCCCCCCCC(=O)NCCCC[C@H](NC(=O)[C@H](CC(C)C)NC(=O)[C@H](CCCCN)NC(=O)[C@H](CCCCNC(=O)[C@H](CC(C)C)NC(=O)[C@H](CCCCN)NC(=O)[C@H](CCCCNC(=O)[C@H](CC(C)C)NC(=O)[C@H](CCCCN)NC(=O)[C@H](CCCCNC(=O)[C@H](CC(C)C)NC(=O)[C@@H](N)CCCCN)NC(=O)[C@H](CC(C)C)NC(=O)[C@@H](N)CCCCN)NC(=O)[C@H](CC(C)C)NC(=O)[C@H](CCCCN)NC(=O)[C@H](CCCCNC(=O)[C@H](CC(C)C)NC(=O)[C@@H](N)CCCCN)NC(=O)[C@H](CC(C)C)NC(=O)[C@@H](N)CCCCN)NC(=O)[C@H](CC(C)C)NC(=O)[C@H](CCCCN)NC(=O)[C@H](CCCCNC(=O)[C@H](CC(C)C)NC(=O)[C@H](CCCCN)NC(=O)[C@H](CCCCNC(=O)[C@H](CC(C)C)NC(=O)[C@@H](N)CCCCN)NC(=O)[C@H](CC(C)C)NC(=O)[C@@H](N)CCCCN)NC(=O)[C@H](CC(C)C)NC(=O)[C@H](CCCCN)NC(=O)[C@H](CCCCNC(=O)[C@H](CC(C)C)NC(=O)[C@@H](N)CCCCN)NC(=O)[C@H](CC(C)C)NC(=O)[C@@H](N)CCCCN)C(N)=O` [MSt-284, (KL)8(KKL)4(KKL)2(KKLKC18)] (I: H-KLK([Leu-Lys])KLKKLKKLK(Stearoyl)-NH2 / II: H-KLK([Leu-Lys])KLKKL / III: H-KLK([Leu-Lys])KL / IV: H-KLK([Leu-Lys])KL; amide I:6-IV:C, I:9-II:C, II:6-III:C) was run?
**A.** 6 µg/mL (≈ 1.22 µM)

**Q.** And the “MIC E. coli DH5α” value [2]?
**A.** 3 µg/mL (≈ 0.609 µM)

**Q.** And the “MIC P. aeruginosa PAO1” value [3]?
**A.** 9 µg/mL (≈ 1.83 µM)

**Q.** Which results are given for `CC(C)C[C@H](NC(=O)[C@@H](N)CCN)C(=O)NCCCC[C@H](NC(=O)[C@H](CC(C)C)NC(=O)[C@@H](N)CCN)C(=O)N[C@@H](CCN)C(=O)N[C@@H](C)C(=O)NCCCC[C@H](NC(=O)[C@H](C)NC(=O)[C@H](CCN)NC(=O)[C@H](CCCCNC(=O)[C@H](CC(C)C)NC(=O)[C@@H](N)CCN)NC(=O)[C@H](CC(C)C)NC(=O)[C@@H](N)CCN)C(=O)N[C@@H](CCN)C(=O)N[C@@H](Cc1c[nH]c2ccccc12)C(=O)NCCCC[C@H](NC(=O)[C@H](Cc1c[nH]c2ccccc12)NC(=O)[C@H](CCN)NC(=O)[C@H](CCCCNC(=O)[C@H](C)NC(=O)[C@H](CCN)NC(=O)[C@H](CCCCNC(=O)[C@H](CC(C)C)NC(=O)[C@@H](N)CCN)NC(=O)[C@H](CC(C)C)NC(=O)[C@@H](N)CCN)NC(=O)[C@H](C)NC(=O)[C@H](CCN)NC(=O)[C@H](CCCCNC(=O)[C@H](CC(C)C)NC(=O)[C@@H](N)CCN)NC(=O)[C@H](CC(C)C)NC(=O)[C@@H](N)CCN)C(=O)N[C@@H](CCN)C(=O)N[C@@H](Cc1c[nH]c2ccccc12)C(N)=O` [MSt-207, (DabL)8(KDabA)4(KDabW)2(KDabW)] (I: H-[Dab]LK([Leu-Dab])[Dab]AK[Dab]WK[Dab]W-NH2 / II: H-[Dab]LK([Leu-Dab])[Dab]AK[Dab]W / III: H-[Dab]LK([Leu-Dab])[Dab]A / IV: H-[Dab]LK([Leu-Dab])[Dab]A; amide I:6-IV:C, I:9-II:C, II:6-III:C; N-terminus assumed)?
**A.** MIC B. subtilis BR151 [1]: 7 µg/mL (≈ 1.68 µM); MIC E. coli DH5α [2]: 21 µg/mL (≈ 5.04 µM); MIC P. aeruginosa PAO1 [3]: 8 µg/mL (≈ 1.92 µM)

**Q.** Which “MIC B. subtilis BR151” value [1] does the source give for `CC(C)C[C@H](NC(=O)[C@@H](N)CCN)C(=O)NCCCC[C@H](NC(=O)[C@H](CC(C)C)NC(=O)[C@@H](N)CCN)C(=O)N[C@@H](CCN)C(=O)N[C@@H](Cc1c[nH]c2ccccc12)C(=O)NCCCC[C@H](NC(=O)[C@H](Cc1c[nH]c2ccccc12)NC(=O)[C@H](CCN)NC(=O)[C@H](CCCCNC(=O)[C@H](CC(C)C)NC(=O)[C@@H](N)CCN)NC(=O)[C@H](CC(C)C)NC(=O)[C@@H](N)CCN)C(=O)N[C@@H](CCN)C(=O)N[C@@H](Cc1c[nH]c2ccccc12)C(=O)NCCCC[C@H](NC(=O)[C@H](Cc1c[nH]c2ccccc12)NC(=O)[C@H](CCN)NC(=O)[C@H](CCCCNC(=O)[C@H](Cc1c[nH]c2ccccc12)NC(=O)[C@H](CCN)NC(=O)[C@H](CCCCNC(=O)[C@H](CC(C)C)NC(=O)[C@@H](N)CCN)NC(=O)[C@H](CC(C)C)NC(=O)[C@@H](N)CCN)NC(=O)[C@H](Cc1c[nH]c2ccccc12)NC(=O)[C@H](CCN)NC(=O)[C@H](CCCCNC(=O)[C@H](CC(C)C)NC(=O)[C@@H](N)CCN)NC(=O)[C@H](CC(C)C)NC(=O)[C@@H](N)CCN)C(=O)N[C@@H](CCN)C(=O)N[C@@H](C)C(N)=O` [MSt-205, (DabL)8(KDabW)4(KDabW)2(KDabA)] (I: H-[Dab]LK([Leu-Dab])[Dab]WK[Dab]WK[Dab]A-NH2 / II: H-[Dab]LK([Leu-Dab])[Dab]WK[Dab]W / III: H-[Dab]LK([Leu-Dab])[Dab]W / IV: H-[Dab]LK([Leu-Dab])[Dab]W; amide I:6-IV:C, I:9-II:C, II:6-III:C; N-terminus assumed) here?
**A.** 2 µg/mL (≈ 0.443 µM)

**Q.** And the “MIC E. coli DH5α” value [2]?
**A.** 2 µg/mL (≈ 0.443 µM)

**Q.** And the “MIC P. aeruginosa PAO1” value [3]?
**A.** 3 µg/mL (≈ 0.665 µM)

**Q.** With `NCCCC[C@H](NC(=O)[C@H](CCCCNC(=O)[C@H](Cc1ccccc1)NC(=O)[C@H](CCCCN)NC(=O)[C@H](CCCCNC(=O)[C@H](Cc1ccccc1)NC(=O)[C@H](CCCCN)NC(=O)[C@H](CCCCNC(=O)[C@H](Cc1ccccc1)NC(=O)[C@@H](N)CCCCN)NC(=O)[C@H](Cc1ccccc1)NC(=O)[C@@H](N)CCCCN)NC(=O)[C@H](Cc1ccccc1)NC(=O)[C@H](CCCCN)NC(=O)[C@H](CCCCNC(=O)[C@H](Cc1ccccc1)NC(=O)[C@@H](N)CCCCN)NC(=O)[C@H](Cc1ccccc1)NC(=O)[C@@H](N)CCCCN)NC(=O)[C@H](Cc1ccccc1)NC(=O)[C@H](CCCCN)NC(=O)[C@H](CCCCNC(=O)[C@H](Cc1ccccc1)NC(=O)[C@H](CCCCN)NC(=O)[C@H](CCCCNC(=O)[C@H](Cc1ccccc1)NC(=O)[C@@H](N)CCCCN)NC(=O)[C@H](Cc1ccccc1)NC(=O)[C@@H](N)CCCCN)NC(=O)[C@H](Cc1ccccc1)NC(=O)[C@H](CCCCN)NC(=O)[C@H](CCCCNC(=O)[C@H](Cc1ccccc1)NC(=O)[C@@H](N)CCCCN)NC(=O)[C@H](Cc1ccccc1)NC(=O)[C@@H](N)CCCCN)C(=O)N[C@@H](Cc1ccccc1)C(N)=O` [MSt-174, (KF)8(KKF)4(KKF)2(KKF)] (I: H-KFK([Phe-Lys])KFKKFKKF-NH2 / II: H-KFK([Phe-Lys])KFKKF / III: H-KFK([Phe-Lys])KF / IV: H-KFK([Phe-Lys])KF; amide I:6-IV:C, I:9-II:C, II:6-III:C) as the compound, how does the “MIC B. subtilis BR151” value [1] read?
**A.** 2 µg/mL (≈ 0.396 µM)

**Q.** What about the “MIC E. coli DH5α” value [2] of the same compound?
**A.** 7 µg/mL (≈ 1.39 µM)

**Q.** And the “MIC P. aeruginosa PAO1” value [3]?
**A.** 6 µg/mL (≈ 1.19 µM)

**Q.** With `CC(C)C[C@H](NC(=O)[C@H](CCN)NC(=O)[C@H](CCCCNC(=O)[C@H](CC(C)C)NC(=O)[C@H](CCN)NC(=O)[C@H](CCCCNC(=O)[C@H](CC(C)C)NC(=O)[C@H](CCN)NC(=O)[C@H](CCCCNC(=O)[C@H](CC(C)C)NC(=O)[C@@H](N)CCN)NC(=O)[C@H](CC(C)C)NC(=O)[C@@H](N)CCN)NC(=O)[C@H](CC(C)C)NC(=O)[C@H](CCN)NC(=O)[C@H](CCCCNC(=O)[C@H](CC(C)C)NC(=O)[C@@H](N)CCN)NC(=O)[C@H](CC(C)C)NC(=O)[C@@H](N)CCN)NC(=O)[C@H](CC(C)C)NC(=O)[C@H](CCN)NC(=O)[C@H](CCCCNC(=O)[C@H](CC(C)C)NC(=O)[C@H](CCN)NC(=O)[C@H](CCCCNC(=O)[C@H](CC(C)C)NC(=O)[C@@H](N)CCN)NC(=O)[C@H](CC(C)C)NC(=O)[C@@H](N)CCN)NC(=O)[C@H](CC(C)C)NC(=O)[C@H](CCN)NC(=O)[C@H](CCCCNC(=O)[C@H](CC(C)C)NC(=O)[C@@H](N)CCN)NC(=O)[C@H](CC(C)C)NC(=O)[C@@H](N)CCN)C(N)=O` [MSt-200, (DabL)8(KDabL)4(KDabL)2(KDabL)] (I: H-[Dab]LK([Leu-Dab])[Dab]LK[Dab]LK[Dab]L-NH2 / II: H-[Dab]LK([Leu-Dab])[Dab]LK[Dab]L / III: H-[Dab]LK([Leu-Dab])[Dab]L / IV: H-[Dab]LK([Leu-Dab])[Dab]L; amide I:6-IV:C, I:9-II:C, II:6-III:C; N-terminus assumed) as the compound, how does the “MIC B. subtilis BR151” value [1] read?
**A.** 2 µg/mL (≈ 0.486 µM)

**Q.** What about the “MIC E. coli DH5α” value [2] of the same compound?
**A.** 2 µg/mL (≈ 0.486 µM)

**Q.** And the “MIC P. aeruginosa PAO1” value [3]?
**A.** 3 µg/mL (≈ 0.729 µM)

**Q.** With `CC(C)C[C@H](NC(=O)[C@@H](N)CCN)C(=O)NCCCC[C@H](NC(=O)[C@H](CC(C)C)NC(=O)[C@@H](N)CCN)C(=O)N[C@@H](CCN)C(=O)N[C@@H](Cc1c[nH]c2ccccc12)C(=O)NCCCC[C@H](NC(=O)[C@H](Cc1c[nH]c2ccccc12)NC(=O)[C@H](CCN)NC(=O)[C@H](CCCCNC(=O)[C@H](CC(C)C)NC(=O)[C@@H](N)CCN)NC(=O)[C@H](CC(C)C)NC(=O)[C@@H](N)CCN)C(=O)N[C@@H](CCN)C(=O)N[C@@H](C)C(=O)NCCCC[C@H](NC(=O)[C@H](C)NC(=O)[C@H](CCN)NC(=O)[C@H](CCCCNC(=O)[C@H](Cc1c[nH]c2ccccc12)NC(=O)[C@H](CCN)NC(=O)[C@H](CCCCNC(=O)[C@H](CC(C)C)NC(=O)[C@@H](N)CCN)NC(=O)[C@H](CC(C)C)NC(=O)[C@@H](N)CCN)NC(=O)[C@H](Cc1c[nH]c2ccccc12)NC(=O)[C@H](CCN)NC(=O)[C@H](CCCCNC(=O)[C@H](CC(C)C)NC(=O)[C@@H](N)CCN)NC(=O)[C@H](CC(C)C)NC(=O)[C@@H](N)CCN)C(=O)N[C@@H](CCN)C(=O)N[C@@H](Cc1c[nH]c2ccccc12)C(N)=O` [MSt-206, (DabL)8(KDabW)4(KDabA)2(KDabW)] (I: H-[Dab]LK([Leu-Dab])[Dab]WK[Dab]AK[Dab]W-NH2 / II: H-[Dab]LK([Leu-Dab])[Dab]WK[Dab]A / III: H-[Dab]LK([Leu-Dab])[Dab]W / IV: H-[Dab]LK([Leu-Dab])[Dab]W; amide I:6-IV:C, I:9-II:C, II:6-III:C; N-terminus assumed) as the compound, how does the “MIC B. subtilis BR151” value [1] read?
**A.** 2 µg/mL (≈ 0.455 µM)

**Q.** What about the “MIC E. coli DH5α” value [2] of the same compound?
**A.** 2 µg/mL (≈ 0.455 µM)

**Q.** What about the “MIC P. aeruginosa PAO1” value [3] of the same compound?
**A.** 3 µg/mL (≈ 0.683 µM)
